Data: ChEMBL document CHEMBL1201862, “PubChem BioAssay data set” (2004)
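Where inhibition never reached the appropriate level, the endpoint shown equals the highest concentration tested. Otherwise, values were interpolated linearly from a five-concentration, 48-hour dose response in 96-well plates. Here, GI50 denotes the concentration required for 50% inhibition of growth.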 Activity calls are given as the source filed them. Rule as the data show it: active = GI50 up to about 1.1 µM and inactive = higher.

Key:
Experiment in all cases: DTP human tumour cell line panel, 48 h
786-0 = system: 786-0
A498 = system: A498
ACHN = system: ACHN
BT-549 = system: BT-549
CAKI-1 = system: CAKI-1
CCRF-CEM = system: CCRF-CEM
COLO 205 = system: COLO 205
DU-145 = system: DU-145
EKVX = system: EKVX
HCC 2998 = system: HCC 2998
HCT-116 = system: HCT-116
HCT-15 = system: HCT-15
HOP-92 = system: HOP-92
HT-29 = system: HT-29
Hs-578T = system: Hs-578T
IGROV-1 = system: IGROV-1
K562 = system: K562
KM12 = system: KM12
LOX IMVI = system: LOX IMVI
M14 = system: M14
MCF7 = system: MCF7
MDA-MB-231 = system: MDA-MB-231
MDA-N = system: MDA-N
Malme-3M = system: Malme-3M
NCI-H226 = system: NCI-H226
NCI-H23 = system: NCI-H23
NCI-H460 = system: NCI-H460
NCI-H522 = system: NCI-H522
NCI/ADR-RES = system: NCI/ADR-RES
OVCAR-3 = system: OVCAR-3
OVCAR-4 = system: OVCAR-4
OVCAR-5 = system: OVCAR-5
OVCAR-8 = system: OVCAR-8
PC-3 = system: PC-3
RPMI-8226 = system: RPMI-8226
RXF 393 = system: RXF 393
SF-268 = system: SF-268
SF-295 = system: SF-295
SF-539 = system: SF-539
SK-MEL-28 = system: SK-MEL-28
SK-MEL-2 = system: SK-MEL-2
SK-MEL-5 = system: SK-MEL-5
SK-OV-3 = system: SK-OV-3
SN12C = system: SN12C
SNB-19 = system: SNB-19
SNB-75 = system: SNB-75
SR = system: SR
T47D = system: T47D
TK-10 = system: TK-10
U-251 = system: U-251
UACC-257 = system: UACC-257
UACC-62 = system: UACC-62
UO-31 = system: UO-31
A549 = system: A549
HL-60 = system: HL-60
HOP-62 = system: HOP-62
MDA-MB-435 = system: MDA-MB-435
MOLT-4 = system: MOLT-4
SW-620 = system: SW-620

Measured: GI50

C=C(C)C12CC(COC(=O)c3ccccc3)C34OC5(OC1C3C1OC1(CO)C(O)C1(O)C(OC(=O)c3ccccc3)C(C)C(C(C)CCCCCCC5O)C14)O2 (stereo not given)
inactive: 786-0 > 61.8 µM | A498 60.4 µM | ACHN 24.3 µM | BT-549 > 100 µM | CAKI-1 56.5 µM | CCRF-CEM 26.4 µM | DU-145 53.8 µM | EKVX 58.6 µM | HCT-116 52 µM | HOP-92 > 100 µM | HT-29 19.5 µM | Hs-578T 26.5 µM | IGROV-1 > 72.8 µM | KM12 40.8 µM | LOX IMVI 66.5 µM | M14 27.2 µM | MCF7 72.6 µM | MDA-MB-231 > 78.2 µM | MDA-N 25.9 µM | Malme-3M 25.2 µM | NCI-H226 40.7 µM | NCI-H23 56.2 µM | NCI-H460 33.6 µM | NCI-H522 46.5 µM | NCI/ADR-RES 42.4 µM | OVCAR-3 63 µM | OVCAR-4 > 100 µM | OVCAR-5 88.7 µM | OVCAR-8 60.4 µM | PC-3 38.8 µM | RPMI-8226 18.8 µM | RXF 393 52.6 µM | SF-268 52.1 µM | SF-295 31.2 µM | SF-539 > 70.3 µM | SK-MEL-28 > 49.5 µM | SK-MEL-2 > 100 µM | SK-MEL-5 11.6 µM | SK-OV-3 > 100 µM | SN12C 37.8 µM | SNB-19 > 100 µM | SNB-75 > 82.8 µM | SR 18.5 µM | T47D > 87.9 µM | U-251 32.6 µM | UACC-257 49.3 µM | UACC-62 > 100 µM | UO-31 70.1 µM
54 µM: HCT-15
active: COLO 205 < 0.01 µM | HCC 2998 < 0.01 µM | K562 < 0.01 µM | TK-10 < 0.01 µM

COc1cccc(C2SC(=N)Nc3c2c(C)nn3C(=O)Cc2ccccc2)c1 (stereo not given)
inactive: 786-0 > 100 µM | A498 > 100 µM | A549 > 100 µM | ACHN > 100 µM | BT-549 > 100 µM | CAKI-1 > 100 µM | CCRF-CEM > 100 µM | COLO 205 > 100 µM | DU-145 > 100 µM | EKVX > 100 µM | HCC 2998 > 100 µM | HCT-116 > 100 µM | HL-60 > 100 µM | HOP-62 > 100 µM | HT-29 > 100 µM | Hs-578T > 100 µM | IGROV-1 > 100 µM | K562 > 100 µM | KM12 > 100 µM | LOX IMVI > 100 µM | M14 > 100 µM | MCF7 39.8 µM | MDA-MB-231 > 100 µM | MDA-MB-435 > 100 µM | MDA-N > 100 µM | MOLT-4 > 100 µM | Malme-3M > 100 µM | NCI-H226 > 100 µM | NCI-H23 > 100 µM | NCI-H460 > 100 µM | NCI-H522 > 100 µM | OVCAR-8 > 100 µM | PC-3 > 100 µM | RPMI-8226 > 100 µM | SF-268 > 100 µM | SF-295 > 100 µM | SF-539 > 100 µM | SK-MEL-28 > 100 µM | SK-MEL-5 > 100 µM | SK-OV-3 > 100 µM | SN12C > 100 µM | SNB-19 > 100 µM | SNB-75 51.5 µM | SR > 100 µM | SW-620 > 100 µM | T47D > 100 µM | TK-10 > 100 µM | UACC-257 > 100 µM | UACC-62 > 100 µM | UO-31 > 100 µM
> 100 µM: HCT-15

Cc1c(S(=O)(=O)N/C(N)=N/c2ccc(Cl)cc2)sc2ccc(Cl)cc12
inactive: 786-0 17.1 µM | A498 15.6 µM | A549 19.1 µM | ACHN 17 µM | BT-549 24.4 µM | COLO 205 17.2 µM | DU-145 18.5 µM | EKVX 15.9 µM | HCT-116 15.9 µM | HL-60 25.8 µM | HOP-62 18.5 µM | HOP-92 22.6 µM | HT-29 19.8 µM | Hs-578T 21.7 µM | IGROV-1 16.1 µM | K562 36.2 µM | KM12 28.1 µM | LOX IMVI 20 µM | M14 17.3 µM | MCF7 17.8 µM | MDA-MB-231 16 µM | MDA-N 20.1 µM | MOLT-4 28.6 µM | Malme-3M 17.1 µM | NCI-H226 20.4 µM | NCI-H23 18 µM | NCI-H460 16.9 µM | NCI-H522 14 µM | NCI/ADR-RES 19.5 µM | OVCAR-3 18.2 µM | OVCAR-4 22.2 µM | OVCAR-5 18.8 µM | OVCAR-8 19.3 µM | PC-3 14.7 µM | RPMI-8226 33.7 µM | RXF 393 48.6 µM | SF-268 17 µM | SF-295 20.7 µM | SF-539 23.9 µM | SK-MEL-28 21.4 µM | SK-MEL-2 17.2 µM | SK-MEL-5 33.6 µM | SK-OV-3 26.1 µM | SN12C 15.7 µM | SNB-19 21.4 µM | SNB-75 19.6 µM | SR 47.3 µM | SW-620 22 µM | T47D 29.7 µM | TK-10 19.9 µM | U-251 16.3 µM | UACC-257 18.1 µM | UACC-62 16.5 µM | UO-31 15.3 µM
19.4 µM: HCT-15

CCN(CC)c1ccc2cc(C(N)=O)/c(=N/c3ccc(F)cc3)oc2c1
inactive: 786-0 14.8 µM | A498 39.4 µM | A549 91 µM | ACHN 40.8 µM | BT-549 > 100 µM | CAKI-1 45.9 µM | CCRF-CEM > 100 µM | COLO 205 > 100 µM | EKVX 81.5 µM | HCC 2998 59.2 µM | HCT-116 5.07 µM | HL-60 > 100 µM | HOP-62 28 µM | HOP-92 18.7 µM | HT-29 6.95 µM | Hs-578T 47.9 µM | IGROV-1 26.7 µM | K562 > 100 µM | KM12 17.6 µM | LOX IMVI 46.1 µM | M14 > 100 µM | MCF7 51.4 µM | MDA-MB-231 14.5 µM | MDA-MB-435 > 100 µM | MDA-N > 100 µM | MOLT-4 > 100 µM | Malme-3M 98.2 µM | NCI-H226 36.4 µM | NCI-H23 13.4 µM | NCI-H460 6.76 µM | NCI-H522 11.6 µM | NCI/ADR-RES 35.6 µM | OVCAR-3 > 100 µM | OVCAR-4 41.3 µM | OVCAR-5 > 100 µM | OVCAR-8 22.8 µM | PC-3 77.1 µM | RPMI-8226 > 100 µM | RXF 393 22.8 µM | SF-268 39.5 µM | SF-295 10.3 µM | SK-MEL-28 > 100 µM | SK-MEL-2 35.7 µM | SK-MEL-5 > 100 µM | SK-OV-3 58.6 µM | SN12C 45.4 µM | SNB-19 25.5 µM | SNB-75 20.4 µM | SR 4.65 µM | SW-620 > 100 µM | T47D 14.2 µM | TK-10 10.3 µM | U-251 38.5 µM | UACC-257 > 100 µM | UACC-62 26.4 µM | UO-31 26.9 µM
59.8 µM: HCT-15

OC1CSCCSCCCSCCSC1
> 100 µM: HCT-15
inactive: 786-0 > 100 µM | A498 > 100 µM | A549 > 100 µM | ACHN > 100 µM | BT-549 > 100 µM | CAKI-1 > 100 µM | COLO 205 > 100 µM | DU-145 > 100 µM | EKVX > 100 µM | HCC 2998 > 100 µM | HCT-116 > 100 µM | HL-60 50.2 µM | HOP-62 > 100 µM | HOP-92 > 100 µM | HT-29 > 100 µM | Hs-578T > 100 µM | IGROV-1 > 100 µM | K562 > 100 µM | LOX IMVI > 100 µM | M14 > 100 µM | MCF7 > 100 µM | MDA-MB-231 > 100 µM | MDA-MB-435 > 100 µM | MDA-N > 100 µM | MOLT-4 > 100 µM | NCI-H226 > 100 µM | NCI-H23 > 100 µM | NCI-H460 > 100 µM | NCI-H522 > 100 µM | OVCAR-3 > 100 µM | OVCAR-4 > 100 µM | OVCAR-5 > 100 µM | OVCAR-8 > 100 µM | PC-3 > 100 µM | RPMI-8226 > 100 µM | RXF 393 > 100 µM | SF-268 > 100 µM | SF-295 > 100 µM | SF-539 > 100 µM | SK-MEL-28 > 100 µM | SK-MEL-2 > 100 µM | SK-MEL-5 > 100 µM | SK-OV-3 > 100 µM | SN12C > 100 µM | SNB-19 > 100 µM | SNB-75 > 100 µM | SW-620 > 100 µM | T47D > 100 µM | TK-10 > 100 µM | U-251 > 100 µM | UACC-257 > 100 µM | UACC-62 > 100 µM | UO-31 > 100 µM
